Experimental data: ChEMBL document CHEMBL1157697, “Novel ester and acid derivatives of the 1,5-diarylpyrrole scaffold as anti-inflammatory and analgesic agents. Synthesis and in vitro and in vivo biological evaluation” (J Med Chem, 2010)

Experiments:
Rattus norvegicus [1] = test: Antiinflammatory activity against carrageenan-induced paw edema rat inflammatory model assessed as paw pressure at 10 mg/kg, po after 60 mins; format: functional
[2] = molecular target: T1, Prostaglandin G/H synthase 2 (Mus musculus, UniProt Q05769)
T1 sequence (Q05769 whole entry): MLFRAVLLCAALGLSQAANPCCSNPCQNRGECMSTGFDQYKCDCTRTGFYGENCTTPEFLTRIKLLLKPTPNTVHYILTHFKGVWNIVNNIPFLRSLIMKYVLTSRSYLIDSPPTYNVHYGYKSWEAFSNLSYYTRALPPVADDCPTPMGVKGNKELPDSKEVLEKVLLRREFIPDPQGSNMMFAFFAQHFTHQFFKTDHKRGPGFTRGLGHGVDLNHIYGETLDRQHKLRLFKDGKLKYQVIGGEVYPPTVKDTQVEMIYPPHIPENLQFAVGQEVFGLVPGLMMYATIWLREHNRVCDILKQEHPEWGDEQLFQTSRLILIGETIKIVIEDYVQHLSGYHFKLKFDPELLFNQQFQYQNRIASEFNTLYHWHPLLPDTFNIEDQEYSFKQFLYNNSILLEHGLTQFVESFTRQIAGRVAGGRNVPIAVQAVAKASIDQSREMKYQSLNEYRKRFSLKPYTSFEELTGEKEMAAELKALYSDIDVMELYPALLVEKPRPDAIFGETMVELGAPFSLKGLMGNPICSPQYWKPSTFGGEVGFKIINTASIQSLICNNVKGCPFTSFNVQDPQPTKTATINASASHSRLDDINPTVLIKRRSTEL
Description: Inhibition of COX2-dependent PGE2 production in LPS-stimulated mouse J774 cells by RIA

Rattus norvegicus [3] = test: Antiinflammatory activity against carrageenan-induced paw edema rat inflammatory model assessed as paw pressure at 10 mg/kg, po after 120 mins; format: functional
Rattus norvegicus [4] = test: Antiinflammatory activity against carrageenan-induced paw edema rat inflammatory model assessed as paw volume at 10 mg/kg, po after 60 mins; format: functional
Mus musculus [5] = species on record: Mus musculus; test: Toxicity in Swiss mouse assessed as number of falls in 30 seconds after 15 mins by rotarod test; format: organism-based; details: in vivo, 0.25 h
Rattus norvegicus [6] = test: Antiinflammatory activity against carrageenan-induced paw edema rat inflammatory model assessed as suppression of paw edema at 10 mg/kg, po after 60 mins; format: functional
[7] = Volume of distribution in Sprague-Dawley rat at 10 mg/kg, iv; format: ADME, organism-based; set-up: dose 10 mg/kg, route intravenous; details: in vivo
[8] = molecular target: T2, Prostaglandin G/H synthase 2 (Homo sapiens, UniProt P35354); test: Inhibition of COX2 in human whole blood assessed as inhibition of LPS-induced PGE2 production by RIA; format: tissue-based
T2 sequence (P35354 whole entry): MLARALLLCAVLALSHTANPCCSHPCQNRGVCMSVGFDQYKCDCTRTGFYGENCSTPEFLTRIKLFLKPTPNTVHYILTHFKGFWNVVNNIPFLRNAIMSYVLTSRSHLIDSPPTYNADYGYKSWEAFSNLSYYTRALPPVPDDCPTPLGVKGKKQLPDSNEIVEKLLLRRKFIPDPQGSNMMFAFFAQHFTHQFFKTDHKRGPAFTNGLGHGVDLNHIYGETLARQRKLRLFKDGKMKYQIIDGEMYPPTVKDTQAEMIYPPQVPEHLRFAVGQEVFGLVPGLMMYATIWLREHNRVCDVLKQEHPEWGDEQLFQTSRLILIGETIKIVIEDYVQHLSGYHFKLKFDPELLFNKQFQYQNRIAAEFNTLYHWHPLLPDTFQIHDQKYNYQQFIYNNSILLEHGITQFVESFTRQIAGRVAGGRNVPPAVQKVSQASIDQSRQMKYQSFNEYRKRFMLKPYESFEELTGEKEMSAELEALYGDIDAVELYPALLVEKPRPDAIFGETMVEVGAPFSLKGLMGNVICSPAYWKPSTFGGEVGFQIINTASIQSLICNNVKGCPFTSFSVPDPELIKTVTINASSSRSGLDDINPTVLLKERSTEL

Rattus norvegicus [9] = test: Rate of blood flow in Sprague-Dawley rat at 10 mg/kg, iv; format: ADME, organism-based; set-up: dose 10 mg/kg, route intravenous; details: in vivo
Rattus norvegicus [10] = species on record: Rattus norvegicus; test: Analgesic activity against zymosan-induced hyperalgesia in rat assessed maximum effect measured up to 6 hrs
[11] = Metabolic stability in human liver microsomes at 10 uM; format: ADME, Microsome; details: read-out: Stability
Rattus norvegicus [12] = test: Antiinflammatory activity against carrageenan-induced paw edema rat inflammatory model assessed as paw pressure at 10 mg/kg, po after 30 mins; format: functional
[13] = Clearance in Sprague-Dawley rat at 10 mg/kg, iv; format: ADME, organism-based; set-up: dose 10 mg/kg, route intravenous; details: in vivo
Mus musculus [14] = species on record: Mus musculus; test: Toxicity in Swiss mouse assessed as number of falls in 30 seconds after 60 mins by rotarod test; format: organism-based; details: in vivo, 1 h
[15] = Oral bioavailability in Sprague-Dawley rat at 10 mg/kg; format: ADME, organism-based; details: in vivo
Mus musculus [16] = test: Analgesic activity against acetic acid-induced po dosed mouse abdominal constriction assessed as writhing; details: Abdomen
Mus musculus [17] = species on record: Mus musculus; test: Toxicity in Swiss mouse assessed as number of falls in 30 seconds after 45 mins by rotarod test; format: organism-based; details: in vivo, 0.75 h
[18] = molecular target: T3, Prostaglandin G/H synthase 1 (Mus musculus, UniProt P22437)
T3 sequence (P22437 whole entry): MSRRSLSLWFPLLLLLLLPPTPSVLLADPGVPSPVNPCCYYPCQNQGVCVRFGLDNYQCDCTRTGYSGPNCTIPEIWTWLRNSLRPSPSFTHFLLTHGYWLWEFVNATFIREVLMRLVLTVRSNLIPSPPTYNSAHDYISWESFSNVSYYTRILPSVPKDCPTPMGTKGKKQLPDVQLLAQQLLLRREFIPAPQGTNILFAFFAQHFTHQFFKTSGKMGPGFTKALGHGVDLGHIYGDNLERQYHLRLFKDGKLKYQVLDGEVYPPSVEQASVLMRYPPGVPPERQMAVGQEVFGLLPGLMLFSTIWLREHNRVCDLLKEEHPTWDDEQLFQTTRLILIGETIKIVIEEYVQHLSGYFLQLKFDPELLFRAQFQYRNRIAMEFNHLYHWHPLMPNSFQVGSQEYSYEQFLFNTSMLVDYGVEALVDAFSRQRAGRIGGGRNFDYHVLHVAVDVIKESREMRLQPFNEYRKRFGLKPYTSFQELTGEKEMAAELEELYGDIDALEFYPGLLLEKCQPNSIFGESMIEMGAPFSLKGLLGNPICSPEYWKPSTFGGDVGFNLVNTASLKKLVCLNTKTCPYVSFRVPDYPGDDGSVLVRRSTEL
Description: Inhibition of COX1-dependent PGE2 production in LPS-stimulated mouse J774 cells by RIA

Mus musculus [19] = species on record: Mus musculus; test: Toxicity in Swiss mouse assessed as number of falls in 30 seconds after 30 mins by rotarod test; format: organism-based; details: in vivo, 0.5 h
Rattus norvegicus [20] = species on record: Rattus norvegicus; test: Analgesic activity against zymosan-induced hyperalgesia in rat assessed maximum effect measured up to 2 hrs
[21] = molecular target: Prostaglandin G/H synthase 1 (Homo sapiens, UniProt P23219); test: Inhibition of COX1 in human whole blood assessed as thromboxane B2 production by RIA; format: tissue-based
[22] = Metabolic stability in human liver microsomes at 0.1 uM; format: ADME, Microsome; details: read-out: Stability

Sequence of Prostaglandin G/H synthase 1 (Homo sapiens, UniProt P23219) (P23219 whole entry): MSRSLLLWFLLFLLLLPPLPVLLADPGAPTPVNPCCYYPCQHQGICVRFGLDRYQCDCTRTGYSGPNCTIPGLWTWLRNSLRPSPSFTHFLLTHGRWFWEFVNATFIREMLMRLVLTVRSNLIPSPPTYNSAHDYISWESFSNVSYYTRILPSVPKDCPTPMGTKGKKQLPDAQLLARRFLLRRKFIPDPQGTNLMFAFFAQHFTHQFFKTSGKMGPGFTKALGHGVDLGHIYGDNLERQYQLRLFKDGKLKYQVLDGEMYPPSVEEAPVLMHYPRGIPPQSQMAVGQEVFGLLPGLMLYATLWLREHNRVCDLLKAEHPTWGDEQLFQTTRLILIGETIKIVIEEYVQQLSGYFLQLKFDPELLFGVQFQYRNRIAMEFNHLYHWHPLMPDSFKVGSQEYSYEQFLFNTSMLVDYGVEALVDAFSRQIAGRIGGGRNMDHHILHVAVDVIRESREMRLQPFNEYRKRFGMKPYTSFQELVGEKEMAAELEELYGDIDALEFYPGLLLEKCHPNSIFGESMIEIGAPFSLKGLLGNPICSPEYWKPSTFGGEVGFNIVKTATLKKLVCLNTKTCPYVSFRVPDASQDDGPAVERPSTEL

Cc1c(CC(=O)OC(C)C)cc(-c2ccc(S(C)(=O)=O)cc2)n1-c1ccccc1
Activity (Rattus norvegicus [1]): 51.8 g | IC50 [2]: 7.3 nM | Activity (Rattus norvegicus [3]): 48.8 g | Activity (Rattus norvegicus [4]): 1.26 mL | Activity (Mus musculus [5]): Non-toxic | Activity (Rattus norvegicus [6]): 100% | Vd [7]: 5.6 L | IC50 [8]: 2500 nM | LBF (Rattus norvegicus [9]): 0.8 L/h | Activity (Rattus norvegicus [10]): 70% | remaining at 10 µM [11]: 1% | Activity (Rattus norvegicus [12]): 56.2 g | clearance [13]: 33.3 mL/min | Activity (Mus musculus [14]): Non-toxic | bioavailability [15]: 42% | Activity (Mus musculus [16]): Dose-dependent effect | Activity (Mus musculus [17]): Non-toxic | IC50 [18]: > 100000 nM | Activity (Mus musculus [19]): Non-toxic | Activity (Rattus norvegicus [20]): 75% | IC50 [21]: 20000 nM | remaining at 0.1 µM [22]: 11%
